Key:
[1] = biological target: T1, MAGL (Mus musculus, UniProt O35678); test: In vitro competitive activity-based protein profiling (Table 2, % inhibition at 1 μM); assay type: biochemical; conditions: read-out: % Inhibition at 1 μM MAGL
T1 sequence (O35678 1-303): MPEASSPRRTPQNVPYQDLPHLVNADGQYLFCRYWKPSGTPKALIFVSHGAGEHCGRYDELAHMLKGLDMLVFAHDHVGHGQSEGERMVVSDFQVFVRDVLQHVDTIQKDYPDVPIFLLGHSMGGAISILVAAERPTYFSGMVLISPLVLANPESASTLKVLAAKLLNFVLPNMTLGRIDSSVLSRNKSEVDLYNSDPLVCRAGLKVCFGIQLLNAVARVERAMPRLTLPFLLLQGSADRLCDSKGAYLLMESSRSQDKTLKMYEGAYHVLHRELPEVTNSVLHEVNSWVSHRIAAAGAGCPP
Procedure: After 30 min, FP—Rh (1.0 μL, 50 μM in DMSO) was added and the mixture was incubated for another 30 min at 37° C. Reactions were quenched with SDS loading buffer (50 μL-4×) and run on SDS-PAGE.
Cell lysates were diluted with mock proteomes for use in competitive ABPP experiments.

[2] = biological target: T2, FAAH (Mus musculus, UniProt O08914); test: biochemical; conditions: in vitro competitive ABPP
T2 sequence (O08914 1-579): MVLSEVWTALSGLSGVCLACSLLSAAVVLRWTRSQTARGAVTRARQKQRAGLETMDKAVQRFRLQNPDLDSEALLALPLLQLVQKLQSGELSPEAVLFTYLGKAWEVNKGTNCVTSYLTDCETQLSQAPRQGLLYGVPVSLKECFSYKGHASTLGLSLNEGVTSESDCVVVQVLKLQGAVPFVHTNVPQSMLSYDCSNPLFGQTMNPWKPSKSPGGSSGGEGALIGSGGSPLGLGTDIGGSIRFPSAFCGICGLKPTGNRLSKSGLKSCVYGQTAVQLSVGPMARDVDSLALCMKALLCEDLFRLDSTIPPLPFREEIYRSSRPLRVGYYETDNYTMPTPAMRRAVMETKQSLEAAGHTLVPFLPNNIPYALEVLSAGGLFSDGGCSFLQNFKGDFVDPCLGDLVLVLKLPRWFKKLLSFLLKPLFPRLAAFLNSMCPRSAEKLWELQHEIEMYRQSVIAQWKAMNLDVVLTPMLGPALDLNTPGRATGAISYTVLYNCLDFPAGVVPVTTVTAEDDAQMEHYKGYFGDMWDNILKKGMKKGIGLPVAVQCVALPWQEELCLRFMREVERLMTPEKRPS

[3] = biological target: T3, ABHD6 (Mus musculus, UniProt Q8R2Y0); test: In vitro competitive activity-based protein profiling (Table 2, % inhibition at 1 μM); assay type: biochemical; conditions: read-out: % Inhibition at 1 μM ABHD6
T3 sequence (Q8R2Y0 1-336): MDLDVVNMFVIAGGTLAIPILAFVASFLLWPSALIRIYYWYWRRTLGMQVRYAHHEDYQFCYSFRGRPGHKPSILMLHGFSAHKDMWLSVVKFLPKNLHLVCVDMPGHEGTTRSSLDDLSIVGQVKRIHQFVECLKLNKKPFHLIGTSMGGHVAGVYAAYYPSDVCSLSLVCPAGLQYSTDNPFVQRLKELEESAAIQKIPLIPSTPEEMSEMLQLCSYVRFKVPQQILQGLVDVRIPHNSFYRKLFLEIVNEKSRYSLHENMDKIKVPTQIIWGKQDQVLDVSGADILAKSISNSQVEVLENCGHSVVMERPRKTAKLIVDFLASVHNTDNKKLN

[4] = biological target: T2, FAAH; test: as above; assay type: biochemical; conditions: read-out: % Inhibition at 1 μM FAAH
[5] = biological target: T3, ABHD6; test: biochemical; conditions: in vitro competitive ABPP
[6] = biological target: T4, Mouse brain MAGL (Mus musculus, UniProt O35678); test: Mouse brain proteomes from inhibitor treated mice (oral gavage, ABPP analysis); assay type: in vivo; conditions: p.o., sacrificed 4 h following administration
T4 construct: from tissue; host or cells: brain of wild-type C57Bl/6J mice dosed by oral gavage
T4 sequence (O35678 1-303): T1 sequence (O35678 1-303)
Procedure: After 30 min, FP—Rh (1.0 μL, 50 μM in DMSO) was added and the mixture was incubated for another 30 min at 37° C. Reactions were quenched with SDS loading buffer (50 μL-4×) and run on SDS-PAGE. Following gel imaging, serine hydrolase activity was determined by measuring fluorescent intensity of gel bands corresponding to MAGL, ABHD6 and FAAH using ImageJ 1.43 u software.
Inhibitors were administered to wild-type C57Bl/6J by oral gavage in a vehicle of polyethylene glycol. Each animal was sacrificed 4 h following administration and brain proteomes were prepared and analyzed according to previously established methods (See Niphakis, M. J., et al. (2011) ACS Chem. Neurosci. and Long, J. Z., et al. Nat. Chem. Biol. 5:37-44).

[7] = biological target: T1, MAGL; test: biochemical; conditions: mouse; in vitro competitive ABPP; read-out: Mouse (IC50 value, nM) MAGL

| Structure (SMILES) | inhibition at 1 µM [1] [%] | IC50 [2] [nM] | inhibition at 1 µM [3] [%] | inhibition at 1 µM [4] [%] | IC50 [5] [nM] | inhibition at 5 mg/kg [6] [%] | IC50 [7] [nM] |
| --- | --- | --- | --- | --- | --- | --- | --- |
| Cn1cc(CN2CC3CN(C(=O)OC(C(F)(F)F)C(F)(F)F)CC3C2)c(-c2ccccc2Cl)n1 (stereo not drawn) [Example 51, 1,1,1,3,3,3-Hexafluoropropan-2-yl 5-[[3-(2-chlorophenyl)-1-methyl-1H-pyrazol-4-yl]methyl]-octahydropyrrolo[3,4-c]pyrrole-2-carboxylate] | > 75 | > 10000 | 25 to 75 | < 25 | 1000 to 10000 | ≤ 25 | < 100 |
| O=C(OC(C(F)(F)F)C(F)(F)F)N1CC2CN(Cc3ccc(Cl)cc3N3CC4CCC(C3)O4)CC2C1 (stereo not drawn) [Example 3, 1,1,1,3,3,3-Hexafluoropropan-2-yl 5-(2-(8-oxa-3-azabicyclo[3.2.1]octan-3-yl)-4-chlorobenzyl)hexahydropyrrolo[3,4-c]pyrrole-2(1H)-carboxylate] | > 75 | 1000 to 10000 | 25 to 75 | 25 to 75 | 1000 to 10000 | ≤ 25 | < 100 |
| O=C(OC(C(F)(F)F)C(F)(F)F)N1CC2CN(Cc3cccc(Cl)c3N3CCC4(CCOCC4)C3)CC2C1 (stereo not drawn) [Example 172, 1,1,1,3,3,3-hexafluoropropan-2-yl 5-[(3-chloro-2-[8-oxa-2-azaspiro[4.5]decan-2-yl]phenyl)methyl]-octahydropyrrolo[3,4-c]pyrrole-2-carboxylate] | > 75 | > 10000 | < 25 | < 25 | 1000 to 10000 | ≤ 25 | < 100 |
| CS(=O)(=O)N1CCC2(CCN(c3ccccc3CN3CC4CN(C(=O)OC(C(F)(F)F)C(F)(F)F)CC4C3)C2)C1 (stereo not drawn) [Example 134, 1,1,1,3,3,3-hexafluoropropan-2-yl 5-[(2-[7-methanesulfonyl-2,7-diazaspiro[4.4]nonan-2-yl]phenyl)methyl]-octahydropyrrolo[3,4-c]pyrrole-2-carboxylate] | > 75 | 1000 to 10000 | < 25 | 25 to 75 | 1000 to 10000 | ≤ 25 | < 100 |
| CS(=O)(=O)N1CCN(c2cc(Cl)ccc2CN2CC3CN(C(=O)OC(C(F)(F)F)C(F)(F)F)CC3C2)CC1 (stereo not drawn) [Example 36, 1,1,1,3,3,3-Hexafluoropropan-2-yl 5-[[4-chloro-2-(4-methanesulfonylpiperazin-1-yl)phenyl]methyl]-octahydropyrrolo[3,4-c]pyrrole-2-carboxylate] | > 75 | 1000 to 10000 | 25 to 75 | < 25 | 100 to 1000 | 25 to 75 | < 100 |
| O=C(OC(C(F)(F)F)C(F)(F)F)N1CC2CN(Cc3cccc(Cl)c3N3CCC(F)CC3)CC2C1 (stereo not drawn) [Example 159, 1,1,1,3,3,3-hexafluoropropan-2-yl 5-[[3-chloro-2-(4-fluoropiperidin-1-yl)phenyl]methyl]-octahydropyrrolo[3,4-c]pyrrole-2-carboxylate] | > 75 | > 10000 | < 25 | < 25 | 1000 to 10000 | ≤ 25 | < 100 |
| O=C(OC(C(F)(F)F)C(F)(F)F)N1CC2CN(Cc3ccc(Cl)cc3N3CCC(C(=O)N4CCCC4)CC3)CC2C1 (stereo not drawn) [Example 37, 1,1,1,3,3,3-Hexafluoropropan-2-yl 5-[(4-chloro-2-[4-[(pyrrolidin-1-yl)carbonyl]piperidin-1-yl]phenyl)methyl]-octahydropyrrolo[3,4-c]pyrrole-2-carboxylate] | > 75 | 1000 to 10000 | < 25 | 25 to 75 | 1000 to 10000 | ≤ 25 | < 100 |
| CCn1cc(CN2CC3CN(C(=O)OC(C(F)(F)F)C(F)(F)F)CC3C2)c(-c2cccc(N3CCCCC3)c2)n1 (stereo not drawn) [Example 132, 1,1,1,3,3,3-hexafluoropropan-2-yl 5-([1-ethyl-3-[3-(piperidin-1-yl)phenyl]-1H-pyrazol-4-yl]methyl)-octahydropyrrolo[3,4-c]pyrrole-2-carboxylate] | > 75 | 1000 to 10000 | < 25 | < 25 | 1000 to 10000 | ≤ 25 | < 100 |
| Cc1cccc(CN2CC3CN(C(=O)OC(C(F)(F)F)C(F)(F)F)CC3C2)c1N1CCC2(CCOC2)C1 (stereo not drawn) [Example 40, 1,1,1,3,3,3-Hexafluoropropan-2-yl 5-[(3-methyl-2-[2-oxa-7-azaspiro[4.4]nonan-7-yl]phenyl)methyl]-octahydropyrrolo[3,4-c]pyrrole-2-carboxylate] | > 75 | 1000 to 10000 | < 25 | < 25 | 1000 to 10000 | 25 to 75 | < 100 |
| CCn1ncc(CN2CC3CN(C(=O)OC(C(F)(F)F)C(F)(F)F)CC3C2)c1C(=O)NCCc1cccc(Cl)c1 (stereo not drawn) [Example 180, 1,1,1,3,3,3-hexafluoropropan-2-yl 5-((5-((3-chlorophenethyl)carbamoyl)-1-ethyl-1H-pyrazol-4-yl)methyl)hexahydropyrrolo[3,4-c]pyrrole-2(1H)-carboxylate] | > 75 | > 10000 | < 25 | < 25 | 1000 to 10000 | ≤ 25 | < 100 |
| Cc1cc(CN2CC3CN(C(=O)OC(C(F)(F)F)C(F)(F)F)CC3C2)n(C2CCCCC2)n1 (stereo not drawn) [Example 58, 1,1,1,3,3,3-Hexafluoropropan-2-yl 5-[(1-cyclohexyl-3-methyl-1H-pyrazol-5-yl)methyl]-octahydropyrrolo[3,4-c]pyrrole-2-carboxylate] | > 75 | > 10000 | 25 to 75 | < 25 | 1000 to 10000 | ≥ 75 | < 100 |
| CCn1cc(CN2CC3CN(C(=O)OC(C(F)(F)F)C(F)(F)F)CC3C2)c(-c2ccccc2N2CCCCC2)n1 (stereo not drawn) [Example 130, 1,1,1,3,3,3-hexafluoropropan-2-yl 5-([1-ethyl-3-[2-(piperidin-1-yl)phenyl]-1H-pyrazol-4-yl]methyl)-octahydropyrrolo[3,4-c]pyrrole-2-carboxylate] | > 75 | > 10000 | < 25 | < 25 | 1000 to 10000 | ≤ 25 | < 100 |
